PubChem BioAssay AID1918930 (Molecular Pharmacology Branch, DTP, NCI, 2023)
pIC50: −log10 of the molar value.

System: 233499-124-R-J3-PDC complex spheroid viability, % test/control
Assay: Anticancer human tumor 233499-124-R-J3-PDC patient-derived colon adenocarcinoma cell line growth inhibition
Settings: for pIC50: curve of first compound; for viability, T/C: stronger effect = lower value
Summary of the method: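 Multicellular complex spheroids of tumor cells with human endothelial cells (HUVEC) and mesenchymal stem cells; the LSD1 inhibitor iadademstat was combined with standard-of-care or investigational agents. Top concentration at or near clinical Cmax, half-log dilutions; final DMSO ≤0.25%.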

[1] = second compound 0.1 µM, first compound 0.000949 µM
[2] = second compound 0.1 µM, first compound 0.003 µM
[3] = second compound 0.1 µM, first compound 0.00949 µM
[4] = second compound 0.1 µM, first compound 0.03 µM
[5] = second compound 0.1 µM, first compound 0.0949 µM
[6] = second compound 0.1 µM, first compound 0.3 µM
[7] = second compound 0.316 µM, first compound 0.000949 µM
[8] = second compound 0.316 µM, first compound 0.003 µM
[9] = second compound 0.316 µM, first compound 0.00949 µM
[10] = second compound 0.316 µM, first compound 0.03 µM
[11] = second compound 0.316 µM, first compound 0.0949 µM
[12] = second compound 0.316 µM, first compound 0.3 µM
[13] = second compound 1 µM, first compound 0.000949 µM
[14] = second compound 1 µM, first compound 0.003 µM
[15] = second compound 1 µM, first compound 0.00949 µM
[16] = second compound 1 µM, first compound 0.03 µM
[17] = second compound 1 µM, first compound 0.0949 µM
[18] = second compound 1 µM, first compound 0.3 µM
[19] = second compound 3.16 µM, first compound 0.000949 µM
[20] = second compound 3.16 µM, first compound 0.003 µM
[21] = second compound 3.16 µM, first compound 0.00949 µM
[22] = second compound 3.16 µM, first compound 0.03 µM
[23] = second compound 3.16 µM, first compound 0.0949 µM
[24] = second compound 3.16 µM, first compound 0.3 µM
[25] = second compound 10 µM, first compound 0.000949 µM
[26] = second compound 10 µM, first compound 0.003 µM
[27] = second compound 10 µM, first compound 0.00949 µM
[28] = second compound 10 µM, first compound 0.03 µM
[29] = second compound 10 µM, first compound 0.0949 µM
[30] = second compound 10 µM, first compound 0.3 µM
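Note: spheroids exposed to agents for one week before readout.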

Compound CC[C@@]1(O)C(=O)OCc2c1cc1n(c2=O)Cc2cc3c(CN(C)C)c(O)ccc3nc2-1 + NC1CCC(NC2CC2c2ccccc2)CC1 has a pIC50 (second compound 0.1 µM) of less than 7.00, a pIC50 (second compound 0.316 µM) of 7.50 and a pIC50 (second compound 1 µM) of less than 7.00. The pIC50 (second compound 3.16 µM) was less than 7.00, the pIC50 (second compound 10 µM) was less than 7.00 and the viability, T/C (second compound 0.1 µM, first compound 0.000316 µM) was 104%. It also gave a viability, T/C (second compound 0.1 µM, first compound 0.001 µM) of 76.6%, a viability, T/C (second compound 0.1 µM, first compound 0.00316 µM) of 79.7% and a viability, T/C (second compound 0.1 µM, first compound 0.01 µM) of 64%. The viability, T/C (second compound 0.1 µM, first compound 0.0316 µM) was 71.9%, the viability, T/C (second compound 0.1 µM, first compound 0.1 µM) was 87.9% and the viability, T/C (second compound 0.316 µM, first compound 0.000316 µM) was 93.7%. The viability, T/C (second compound 0.316 µM, first compound 0.001 µM) was 80.1%, the viability, T/C (second compound 0.316 µM, first compound 0.00316 µM) was 88.9% and the viability, T/C (second compound 0.316 µM, first compound 0.01 µM) was 47.5%. It also gave a viability, T/C (second compound 0.316 µM, first compound 0.0316 µM) of 54.5%, a viability, T/C (second compound 0.316 µM, first compound 0.1 µM) of 66.1% and a viability, T/C (second compound 1 µM, first compound 0.000316 µM) of 65.9%. The viability, T/C (second compound 1 µM, first compound 0.001 µM) was 63.9%, the viability, T/C (second compound 1 µM, first compound 0.00316 µM) was 50.3% and the viability, T/C (second compound 1 µM, first compound 0.01 µM) was 51.5%. The viability, T/C (second compound 1 µM, first compound 0.0316 µM) was 71.2%, the viability, T/C (second compound 1 µM, first compound 0.1 µM) was 63.8% and the viability, T/C (second compound 3.16 µM, first compound 0.000316 µM) was 92%. It also gave a viability, T/C (second compound 3.16 µM, first compound 0.001 µM) of 74.9%, a viability, T/C (second compound 3.16 µM, first compound 0.00316 µM) of 56.8% and a viability, T/C (second compound 3.16 µM, first compound 0.01 µM) of 53.6%. The viability, T/C (second compound 3.16 µM, first compound 0.0316 µM) was 58.8%, the viability, T/C (second compound 3.16 µM, first compound 0.1 µM) was 69.9% and the viability, T/C (second compound 10 µM, first compound 0.000316 µM) was 76.9%. For the same compound, the viability, T/C (second compound 10 µM, first compound 0.001 µM) was 82.9%, the viability, T/C (second compound 10 µM, first compound 0.00316 µM) was 68.4% and the viability, T/C (second compound 10 µM, first compound 0.01 µM) was 48%. For the same compound, the viability, T/C (second compound 10 µM, first compound 0.0316 µM) was 60.8% and the viability, T/C (second compound 10 µM, first compound 0.1 µM) was 80.7%.

In the case of CCc1c2c(nc3ccc(O)cc13)-c1cc3c(c(=O)n1C2)COC(=O)[C@]3(O)CC + NC1CCC(NC2CC2c2ccccc2)CC1, the pIC50 (second compound 0.1 µM) was 7.60, the pIC50 (second compound 0.316 µM) was 7.56 and the pIC50 (second compound 1 µM) was 7.53. It also gave a pIC50 (second compound 3.16 µM) of 7.43, a pIC50 (second compound 10 µM) of 7.39 and a viability, T/C [1] of 80.5%. The viability, T/C [2] was 99.5%, the viability, T/C [3] was 89.6% and the viability, T/C [4] was 42.6%. The viability, T/C [5] was 19.8%, the viability, T/C [6] was 20.4% and the viability, T/C [7] was 99.6%. The viability, T/C [8] was 92.2%, the viability, T/C [9] was 107% and the viability, T/C [10] was 46%. For the same compound, the viability, T/C [11] was 28.6%, the viability, T/C [12] was 12.8% and the viability, T/C [13] was 72.6%. It also gave a viability, T/C [14] of 89.5%, a viability, T/C [15] of 95.6% and a viability, T/C [16] of 49.3%. The viability, T/C [17] was 16.8%, the viability, T/C [18] was 13.2% and the viability, T/C [19] was 90.8%. The viability, T/C [20] was 92.1%, the viability, T/C [21] was 99.7% and the viability, T/C [22] was 56%. It also gave a viability, T/C [23] of 28.5%, a viability, T/C [24] of 18.2% and a viability, T/C [25] of 72.3%. For the same compound, the viability, T/C [26] was 78.3%, the viability, T/C [27] was 93.2% and the viability, T/C [28] was 58.8%. It also gave a viability, T/C [29] of 27.1% and a viability, T/C [30] of 22.9%.

COc1cc(C2c3cc4c(cc3C(OC3OC5COC(C)OC5C(O)C3O)C3COC(=O)C23)OCO4)cc(OC)c1O (stereo not given) + NC1CCC(NC2CC2c2ccccc2)CC1 was tested, and the pIC50 (second compound 0.1 µM) was less than 5.52, the pIC50 (second compound 0.316 µM) was less than 5.52 and the pIC50 (second compound 1 µM) was less than 5.52. The pIC50 (second compound 3.16 µM) was less than 5.52, the pIC50 (second compound 10 µM) was 5.89 and the viability, T/C [3] was 96.6%. For the same compound, the viability, T/C [4] was 102%, the viability, T/C [5] was 80.8% and the viability, T/C [6] was 88.8%. It also gave a viability, T/C (second compound 0.1 µM, first compound 0.949 µM) of 81%, a viability, T/C (second compound 0.1 µM, first compound 3 µM) of 75.5% and a viability, T/C [9] of 119%. The viability, T/C [10] was 115%, the viability, T/C [11] was 89% and the viability, T/C [12] was 95%. For the same compound, the viability, T/C (second compound 0.316 µM, first compound 0.949 µM) was 89.9%, the viability, T/C (second compound 0.316 µM, first compound 3 µM) was 73.4% and the viability, T/C [15] was 97.1%. The viability, T/C [16] was 81.3%, the viability, T/C [17] was 80.1% and the viability, T/C [18] was 77.3%. The viability, T/C (second compound 1 µM, first compound 0.949 µM) was 65.7%, the viability, T/C (second compound 1 µM, first compound 3 µM) was 92.2% and the viability, T/C [21] was 91.5%. The viability, T/C [22] was 83.7%, the viability, T/C [23] was 81.4% and the viability, T/C [24] was 65.9%. It also gave a viability, T/C (second compound 3.16 µM, first compound 0.949 µM) of 82%, a viability, T/C (second compound 3.16 µM, first compound 3 µM) of 57.6% and a viability, T/C [27] of 97.1%. For the same compound, the viability, T/C [28] was 77.6%, the viability, T/C [29] was 74.7% and the viability, T/C [30] was 60.5%. It also gave a viability, T/C (second compound 10 µM, first compound 0.949 µM) of 63.7% and a viability, T/C (second compound 10 µM, first compound 3 µM) of 36.4%.

Work on Nc1ccn(C2OC(CO)C(O)C2(F)F)c(=O)n1 (stereo not given) + NC1CCC(NC2CC2c2ccccc2)CC1 yielded a pIC50 (second compound 0.1 µM) of 8.61, a pIC50 (second compound 0.316 µM) of 8.35 and a pIC50 (second compound 1 µM) of 8.21. It also gave a pIC50 (second compound 3.16 µM) of 8.97, a pIC50 (second compound 10 µM) greater than 9.02 and a viability, T/C [1] of 100%. It also gave a viability, T/C [2] of 35.6%, a viability, T/C [3] of 43.9% and a viability, T/C [4] of 21.9%. It also gave a viability, T/C [5] of 30.3%, a viability, T/C [6] of 21.1% and a viability, T/C [7] of 99.4%. For the same compound, the viability, T/C [8] was 58.8%, the viability, T/C [9] was 22.2% and the viability, T/C [10] was 32.3%. The viability, T/C [11] was 37.9%, the viability, T/C [12] was 41.5% and the viability, T/C [13] was 88.7%. For the same compound, the viability, T/C [14] was 62.1%, the viability, T/C [15] was 44.4% and the viability, T/C [16] was 31.1%. For the same compound, the viability, T/C [17] was 26.6%, the viability, T/C [18] was 35.1% and the viability, T/C [19] was 51.4%. The viability, T/C [20] was 40.9%, the viability, T/C [21] was 36.9% and the viability, T/C [22] was 47.2%. For the same compound, the viability, T/C [23] was 18.9%, the viability, T/C [24] was 39.5% and the viability, T/C [25] was 59.2%. The viability, T/C [26] was 29.7%, the viability, T/C [27] was 29.2% and the viability, T/C [28] was 34.9%. The viability, T/C [29] was 27.3% and the viability, T/C [30] was 37%.
